Test results from paper PMC9982066, “Inhibition of Ehrlichia chaffeensis infection by cell-permeable macrocyclic peptides that bind type IV secretion effector Etf-1” (PNAS Nexus, 2023).
Starred links: 1 amine or outer side, 2 acyl side, 3 side chain; linkers in the order of their positions; H or OH if unused. Positions of bridges follow the written chain, without caps; N, C: chain ends. Non-standard residues stand in square brackets, D forms with d. Residues, ends and D or L forms follow the SMILES beside them. Trimesoyl = O=C(c1cc(C(=O)[*:2])cc(C(=O)[*:3])c1)[*:1]; Phe(4-Cl) = N[C@@H](Cc1ccc(Cl)cc1)C(=O)O; Phe(4-F) = N[C@@H](Cc1ccc(F)cc1)C(=O)O; d2Nal = N[C@H](Cc1ccc2ccccc2c1)C(=O)O; Orn = NCCC[C@H](N)C(=O)O; Dap = NC[C@H](N)C(=O)O

Experiments:
E. chaffeensis [1] = assay: E. chaffeensis infection of THP-1 cells, qPCR of 16S rRNA gene normalized to human actin; assay type: cell-based, Ehrlichia chaffeensis; conditions: 10 μM, 2 days, vs DMSO control
Method: Therefore, we investigated whether these Etf-1-binding peptides can prevent the proliferation of E. chaffeensis inside host cells. THP-1 cells were infected with E. chaffeensis, then treated with the peptides at 30 min post infection (pi) for 2 days. Intracellular infection and proliferation of E. chaffeensis inside host THP-1 cells were assessed using quantitative PCR (qPCR) analysis based on E. chaffeensis 16S rRNA gene normalized by human actin (ACT) gene.
Fig. 5. Effects of Etf-1-binding peptides on E. chaffeensis infection of THP-1 cells. Ehrlichia chaffeensis-infected THP-1 cells at […] were incubated with 10 μM of Etf-1-binding macrocyclic peptide or DMSO control for 2 days.
No antibiotic was used throughout the study.
DNA was extracted from each sample using Qiagen blood mini kit according to the manufacturer's instructions (Qiagen, Valencia, CA, USA), and qPCR analysis was performed in an MX3000P qPCR instrument (Stratagene, San Diego, CA, USA) using SYBR Green Real-Time PCR Master Mix (Thermo Fisher Scientific) according to the manufacturer's instructions. Five-fold serial dilutions of the control group were used to generate a standard curve to calculate the relative copy numbers of E. chaffeensis 16S rRNA normalized against human actin genes using the MX3000P software from Stratagene as described previously ([18], [44]).

E. chaffeensis [2] = assay: morphological examination of E. chaffeensis infection of THP-1 cells by Diff-Quik staining; conditions: THP-1 cells, Fig. S4 (with Figs. 5, S3)
Method: Ehrlichia chaffeensis Arkansas strain ([43]) was cultured in THP-1 cells (ATCC, Manassas, VA, USA) in RPMI 1640 medium (Corning, Manassas, VA, USA) supplemented with 8% FBS (Atlanta Biologicals, Flowery Branch, GA, USA) and 4 mM L-glutamine (at 37°C under 5% CO2 in a humidified atmosphere. THP-1 cells were seeded at 1 × 10^5 cells/well (in 1.5-mL RPMI 1640 culture medium with 8% FBS, 4 mM L-Gln) in a 12-well plate, then infected with host cell-free E. chaffeensis at an MOI (multiplicity of infection, or numbers of bacteria per cell) of ∼30. Cells were cultured in a humidified incubator with 5% CO2 and 95% air. No antibiotic was used throughout the study. At 0.5 h post infection (pi), cells were incubated with 1–10 μM of peptides or with an equal volume of DMSO (solvent control, 2 μL per mL medium). At 2 days pi, cells were washed with 1 mL of PBS, and two drops of cells were cytospun onto glass slides by a Shandon Cytospin 4 cytocentrifuge (Thermo Fisher Scientific), then fixed and stained with HEMA 3 staining solutions (Thermo Fisher Scientific). Ehrlichia infection was observed and images were captured by a SPOT RT digital camera (Diagnostic Instruments, Sterling Heights, MI, USA) coupled to a Nikon Eclipse E400 microscope (Nikon, Melville, NY, USA).

Etf-1 [3] = biological target: T1, Etf-1 (Ehrlichia chaffeensis, UniProt Q2GG12); assay: biochemical; assay type: binding; conditions: unlabeled competitor peptides vs FAM-B7-133-8
T1 sequence (Q2GG12 entry or part of it): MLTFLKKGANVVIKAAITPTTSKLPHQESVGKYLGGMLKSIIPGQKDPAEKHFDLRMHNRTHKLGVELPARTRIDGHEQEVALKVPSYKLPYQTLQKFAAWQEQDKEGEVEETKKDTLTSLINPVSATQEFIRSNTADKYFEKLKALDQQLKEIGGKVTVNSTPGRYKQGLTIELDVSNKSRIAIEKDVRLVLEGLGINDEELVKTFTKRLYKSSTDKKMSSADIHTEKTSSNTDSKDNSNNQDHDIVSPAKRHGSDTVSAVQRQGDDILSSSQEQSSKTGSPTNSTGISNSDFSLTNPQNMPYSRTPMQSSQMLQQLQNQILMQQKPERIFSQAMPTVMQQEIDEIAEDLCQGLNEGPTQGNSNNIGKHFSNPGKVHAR
Method: (§1) Fig. 2. Determination of binding affinity of Etf-1-binding peptides by FP assay. […] FAM-labeled peptide (50 nM) was incubated with serially diluted Etf-1 (starting from 25–30 μM in PBS, pH 7.4, supplemented with 5 mM DTT and 0.01% Triton X-100) for 1 h at RT. FP values were measured on a Tecan Infinite M1000 Pro plate reader. Titration curves (n ≥ 3) were fitted using GraphPad Prism and analyzed with TraceDrawer to calculate dissociation constants (KD). […] Data were analyzed using GraphPad Prism and fitted to a four-parameter variable slope equation to determine IC50 values.
Serial dilutions of competitor peptide (0-20 μM) were prepared from DMSO stock solutions into PBS containing 0.01% Triton-X100 and 2 mM TCEP and added to aliquots of the equilibrated Etf-1/probe solution. After incubation for 1 h in the dark and with gentle mixing, 20 μL of each sample was transferred into 384-well black-on-black microplates and FP was measured using a TECAN Infinite M1000 plate reader. Data were analyzed using GraphPad PRISM ver. 8.0 and fit to a four-parameter variable slope equation to determine IC50 values. IC50 values reported are the mean ± SD of n = 2–4 independent experiments.

Etf-1 [4] = biological target: T1, Etf-1; assay: FP assay of Etf-1 binding with FAM-labeled peptides
Method: The peptides were labeled at their C-terminus with carboxyfluorescein (FAM) through a β-Ala-β-Ala-Lys linker and evaluated for binding to Etf-1 by using a fluorescence polarization (FP) assay. […] This outcome is not unexpected, as screening OBOC libraries is often complicated by false positives, due to the presence of high ligand densities on library beads ([28]).
as §1
Etf-1 and macrocyclic peptides were serially diluted in PBS supplemented with 5 mM DTT and 0.01% Triton X-100 (v/v). FAM-labeled peptides (50 nM) were prepared from a 10-μM DMSO stock and incubated with serially diluted Etf-1 for 1 h at room temperature (RT). Twenty microliters of the solutions were transferred to a black 384-well plate (Greiner Bio-One) and FP values were measured on a Tecan Infinite M1000 Pro plate reader with excitation and emission wavelengths at 470 and 535 nm, respectively. Titration curves (n ≥ 3) were fitted using GraphPad Prism v8.0 (GraphPad, La Jolla, CA, USA), and analyzed with TraceDrawer software v1.8 (Ridgeview Instruments AB, Uppsala, Sweden) to calculate the dissociation constant (KD, in nM).

BECN1 binding to Etf-1 = assay: streptavidin magnetic beads pull-down of BECN1 with biotin-Etf-1, Western blot; assay type: biochemical; conditions: 10 µM peptide; for BECN1/Etf-1 Ratio: band intensities, DMSO control set as 1, Fig. 8B
Method: Fig. 8.
Streptavidin magnetic beads (15 µL, Pierce, Rockford, IL, USA) were washed with 1 mL of Bind/Wash buffer (25 mM Tris, pH 7.4; 250 mM NaCl, 0.1% Tween 20), and incubated with 0.15 µg ([…] final concentration) of biotinylated full-length Etf-1 protein in bind/wash buffer at 4°C overnight with end-to-end rotation. Beads were washed three times with Bind/Wash buffer, then incubated with Etf-1-binding macrocyclic peptides (10 µM) or DMSO control in Bind/Wash buffer at room temperature for 2 h. […] Beads were washed three times, and proteins were eluted from the beads with 50 µL of 2× SDS-sample buffer. […] Reacting bands were visualized with enhanced chemiluminescence by incubating the membrane with LumiGLO chemiluminescent reagent (Thermo Fisher Scientific). Images were captured by Amersham Imager 680 (GE Healthcare) and densitometry analysis was performed using ImagQuaNT (GE Healthcare). In each specimen, band intensities were normalized against those of actin as the loading control, and the ratios of the treatment group to the control group were calculated with the value in the control groups arbitrarily set as 1.0.

THP-1 cells = assay: CellTiter-Glo luminescent cell viability assay; conditions: 2-day treatment
From the text: THP-1 (human promyelocytic leukemia) cells are widely used as E. chaffeensis infection studies of human monocytes in vitro, since initial characterization of infection ([31]).
Fig. 4. Cytotoxicity and proteolytic stability of Etf-1-binding peptides. (A) Effect of Etf-1-binding peptides on the viability of THP-1 cells as determined by CellTiter-Glo luminescent assay. Relative luminescence was plotted as function of the peptide concentration, with the cell viability of DMSO control group set as 100%. (B) Plot of the amount of intact peptide remaining as a function of the incubation time in 25% human serum. All values are normalized to that of peptide at time 0 (100%).
Cytotoxicity of Etf-1-binding peptides was examined by CellTiter-Glo luminescent cell viability assay (Promega, Madison, WI, USA). THP-1 cells were seeded in a transparent 96-well plate at a density of 5 × 10^3 cells/well (100 μL in each well) in RPMI-1640 containing 10% FBS and 1% antibiotics and cultured overnight. Etf-1-binding peptides were serially diluted in DPBS from a DMSO stock and added to the cells with the final concentration of 0–25 μM and a constant final concentration of 0.5% DMSO (v/v). After incubation at 37°C with 5% CO2 for 46 h, the plate was removed and pre-equilibrated to RT before the addition of 100 μL of the CellTiter-Glo 2.0 reagent to each well. The plate was incubated for 15 min on a rotary shaker in the dark, and the luminescence was detected (1-s integration time) on a Tecan Infinite M1000 Pro microplate reader. Relative luminescence was plotted as function of the peptide concentration, with the cell viability of DMSO control group set as 100%.

Row | Compound | inhibition of E. chaffeensis infection (E. chaffeensis [1]) | E. chaffeensis infection (numbers and sizes of morulae) (E. chaffeensis [2]) | competition for Etf-1 binding (Etf-1 [3]) | Kd (Etf-1 [4]) | disruption of BECN1 binding to Etf-1 (BECN1 binding to Etf-1; compared to DMSO control) | BECN1/Etf-1 Ratio (BECN1 binding to Etf-1) | cell viability (THP-1 cells; 20 μM) | cytotoxicity (THP-1 cells; up to 10 μM)
1 | CC(C)C[C@H]1NC(=O)[C@H](Cc2ccc(F)cc2)NC(=O)[C@H](CCCN)NC(=O)[C@H](CC(=O)O)NC(=O)[C@H](CC(=O)O)NC(=O)[C@@H](C(C)C)NC(=O)[C@H](Cc2ccc(O)cc2)NC(=O)c2cc3cc(c2)C(=O)NC[C@H](NC1=O)C(=O)N[C@@H](Cc1ccc(Cl)cc1)C(=O)N[C@H](Cc1ccc2ccccc2c1)C(=O)N[C@H](CCCNC(=N)N)C(=O)N[C@@H](CCCNC(=N)N)C(=O)N[C@H](CCCNC(=N)N)C(=O)N[C@@H](CCCNC(=N)N)C(=O)N[C@H](C(N)=O)CNC3=O [Peptide B7-95-2, TMA-Tyr-val-Asp-Asp-Orn-Fpa-leu-Dap-4-ClPhe-nal-arg-Arg-arg-Arg-Dap] (Y[dV]DD[Orn][Phe(4-F)][dL][Dap][Phe(4-Cl)][d2Nal][dR]R[dR]R[Dap]-NH2; linker N-8-15 via Trimesoyl) | significantly inhibited | significantly inhibited | Competition for Etf-1 binding was observed | 740 ± 60 nM |  |  |  | 
2 | CC(C)[C@H]1NC(=O)[C@@H](CCC(=O)O)NC(=O)c2cc3cc(c2)C(=O)NC[C@H](NC(=O)CNC(=O)[C@H](Cc2c[nH]c4ccccc24)NC(=O)[C@H](Cc2ccc(O)cc2)NC1=O)C(=O)N[C@@H](Cc1ccccc1)C(=O)N[C@H](Cc1ccc2ccccc2c1)C(=O)N[C@H](CCCNC(=N)N)C(=O)N[C@@H](CCCNC(=N)N)C(=O)N[C@H](CCCNC(=N)N)C(=O)N[C@@H](CCCNC(=N)N)C(=O)N[C@H](C(N)=O)CNC3=O [Peptide C8, TMA-glu-val-Tyr-Trp-Gly-Dap-Phe-nal-arg-Arg-arg-Arg-Dap] ([dE][dV]YWG[Dap]F[d2Nal][dR]R[dR]R[Dap]-NH2; linker N-6-13 via Trimesoyl) | significantly inhibited | significantly inhibited |  | 5000 ± 1200 nM | disrupted BECN1 binding to Etf-1 | 0.14 |  | 
3 | CC(C)C[C@H]1NC(=O)[C@H](Cc2ccc(F)cc2)NC(=O)[C@@H](Cc2ccc(O)cc2)NC(=O)[C@@H](CC(C)C)NC(=O)[C@@H](C(C)C)NC(=O)[C@H](Cc2ccc(O)cc2)NC(=O)c2cc3cc(c2)C(=O)NC[C@H](NC1=O)C(=O)N[C@@H](Cc1ccc(Cl)cc1)C(=O)N[C@H](Cc1ccc2ccccc2c1)C(=O)N[C@H](CCCNC(=N)N)C(=O)N[C@@H](CCCNC(=N)N)C(=O)N[C@H](CCCNC(=N)N)C(=O)N[C@@H](CCCNC(=N)N)C(=O)N[C@H](C(N)=O)CNC3=O [Peptide B7-133-9, TMA-Tyr-val-leu-tyr-Fpa-leu-Dap-4-ClPhe-nal-arg-Arg-arg-Arg-Dap] (Y[dV][dL][dY][Phe(4-F)][dL][Dap][Phe(4-Cl)][d2Nal][dR]R[dR]R[Dap]-NH2; linker N-7-14 via Trimesoyl) |  | only slightly reduced | Competition for Etf-1 binding was observed |  |  | 1.19 |  | 
4 | CC(C)C[C@H]1NC(=O)[C@H](CO)NC(=O)[C@H]2CCCN2C(=O)[C@H](CCC(N)=O)NC(=O)[C@H](Cc2c[nH]cn2)NC(=O)[C@H](Cc2ccc(O)cc2)NC(=O)c2cc3cc(c2)C(=O)NC[C@H](NC1=O)C(=O)N[C@@H](Cc1ccc(Cl)cc1)C(=O)N[C@H](Cc1ccc2ccccc2c1)C(=O)N[C@H](CCCNC(=N)N)C(=O)N[C@@H](CCCNC(=N)N)C(=O)N[C@H](CCCNC(=N)N)C(=O)N[C@@H](CCCNC(=N)N)C(=O)N[C@H](C(N)=O)CNC3=O [Peptide B7-16, TMA-Tyr-His-Gln-pro-Ser-leu-Dap-4-ClPhe-nal-arg-Arg-arg-Arg-Dap] (YHQ[dP]S[dL][Dap][Phe(4-Cl)][d2Nal][dR]R[dR]R[Dap]-NH2; linker N-7-14 via Trimesoyl) | significantly inhibited | significantly inhibited |  | 2000 ± 200 nM |  |  | slightly reduced the cell viability | no cytotoxicity
5 | TMA-Tyr-Phg-Orn-ala-Ieu-Orn-leu-Dap-4-ClPhe-nal-arg-Arg-arg-Arg-Dap [Peptide B7-131-3] |  |  | Competition for Etf-1 binding was observed |  |  |  |  | 
